Like-named read-outs stand apart in the source and are kept apart here.

Consider 44 molecules from patent US11512053B2, “Arginine methyltransferase inhibitors and uses thereof” (priority 2013, dated 2022).

The target in test [1] is full-length human PRMT1 isoform 1 (GST-tagged) (Homo sapiens, UniProt Q99873). Put plainly: PRMT1 Biochemical Assay (3H-SAM Flashplate, peptide substrate). The method in brief:
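GST-tagged full-length PRMT1 from baculovirus-infected cells, preincubated 30 min at room temperature with compound in 20 mM Bicine pH 7.6, TCEP, BSG, Tween 20. Reaction started with 3H-SAM plus biotinylated peptide, stopped with 300 uM unlabelled SAM. Streptavidin Flashplate capture and scintillation counting; % inhibition curve-fitted for IC50.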

Test [2] concerns the target full-length human PRMT8 isoform 1 (Homo sapiens, UniProt Q9NR22). As to the kind of experiment: PRMT8 Biochemical Assay (3H-SAM Flashplate, peptide substrate). In a few lines: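 Full-length human PRMT8 (1.5 nM, E. coli-expressed, GST removed) preincubated 30 min at room temperature with compound, then reacted with 50 nM 3H-SAM plus 550 nM cold SAM and 150 nM biotinylated H4 31-45 peptide in 20 mM Bicine pH 7.6, 1 mM TCEP, 0.005% BSG, 0.002% Tween 20, 2% DMSO. Quenched with 400 uM cold SAM; labelled peptide captured on streptavidin Flashplate, % inhibition versus 1 mM SAH and DMSO controls fitted to 4- or 3-parameter curve.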

Where [3] appears, read: single experiment or average of multiple experiments.
Where [4] appears, read: single experiment or average of multiple experiments, read-out: Biochemical IC50 PRMT8.
Where [5] appears, read: read-out: Biochemical IC50 PRMT8.
Where [6] appears, read: Biochemical IC50 PRMT8, single experiment or average of multiple experiments.

Sequence of full-length human PRMT1 isoform 1 (GST-tagged) (Q99873 with tags, fused parts or gaps): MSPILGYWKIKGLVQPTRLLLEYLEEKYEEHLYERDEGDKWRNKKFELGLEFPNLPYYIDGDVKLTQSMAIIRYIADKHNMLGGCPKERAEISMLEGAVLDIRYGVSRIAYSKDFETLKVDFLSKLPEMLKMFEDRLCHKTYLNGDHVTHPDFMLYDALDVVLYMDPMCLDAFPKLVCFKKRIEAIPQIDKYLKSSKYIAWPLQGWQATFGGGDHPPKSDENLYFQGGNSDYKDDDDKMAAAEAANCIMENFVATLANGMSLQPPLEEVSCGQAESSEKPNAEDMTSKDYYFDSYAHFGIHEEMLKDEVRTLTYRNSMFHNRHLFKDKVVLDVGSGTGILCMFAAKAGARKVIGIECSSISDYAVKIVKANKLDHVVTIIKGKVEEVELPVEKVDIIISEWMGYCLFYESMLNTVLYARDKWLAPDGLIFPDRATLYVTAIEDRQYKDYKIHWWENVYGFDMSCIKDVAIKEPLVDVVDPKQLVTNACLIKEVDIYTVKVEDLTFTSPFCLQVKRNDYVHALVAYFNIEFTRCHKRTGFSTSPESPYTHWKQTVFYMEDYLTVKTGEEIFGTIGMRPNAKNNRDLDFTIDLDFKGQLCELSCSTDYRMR
Sequence of full-length human PRMT8 isoform 1 (Q9NR22 whole entry, canonical isoform): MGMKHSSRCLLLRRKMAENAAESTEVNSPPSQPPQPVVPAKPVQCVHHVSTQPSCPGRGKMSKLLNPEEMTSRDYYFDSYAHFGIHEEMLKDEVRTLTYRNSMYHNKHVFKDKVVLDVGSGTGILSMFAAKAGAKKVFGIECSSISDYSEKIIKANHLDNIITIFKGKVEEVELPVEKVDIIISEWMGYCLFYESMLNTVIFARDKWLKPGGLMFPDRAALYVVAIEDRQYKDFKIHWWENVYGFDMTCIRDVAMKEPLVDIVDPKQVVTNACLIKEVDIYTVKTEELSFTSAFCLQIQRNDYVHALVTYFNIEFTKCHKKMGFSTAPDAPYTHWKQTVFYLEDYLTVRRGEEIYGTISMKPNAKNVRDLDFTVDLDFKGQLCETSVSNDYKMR

For the molecule `CNCCN(C)Cc1c[nH]nc1C#Cc1cccc(OC)c1` [Compound 1], the concentration for half-maximal inhibition (IC50) was 10 nM in test [1] (setting [3]) and 390 nM in test [2] (setting [4]).
As for `CNCCN(C)Cc1c[nH]nc1C#Cc1ccc(C(C)(C)C)cc1` [Compound 2], the half-inhibitory concentration (IC50) in test [1] (setting [3]) turned out to be 10 nM; in test [2] (setting [4]), 170 nM.
As for `CNCCN(C)Cc1c[nH]nc1C#Cc1ccc(F)cc1` [Compound 4], the IC50 in test [1] (setting [3]) was found to be 20 nM; in test [2] (setting [4]), 590 nM.
For the molecule `CNCCN(C)Cc1c[nH]nc1/C=C/c1ccc(-c2ccccc2)cc1` [Compound 5], the results for the IC50 in test [1] (setting [3]) and in test [2] (setting [4]) were 10 nM and 420 nM, respectively.
On the same counts, the results for `CNCCN(C)Cc1c[nH]nc1/C=C/c1ccc(C(F)(F)F)cc1` [Compound 6] are 40 nM and 240 nM.
As for `CNCCN(C)Cc1c[nH]nc1/C=C/c1ccc(OC)cc1` [Compound 7], the results for the 50% inhibitory concentration (IC50) in test [1] (setting [3]) and in test [2] (setting [4]) were 10 nM and 520 nM, respectively.
In the case of `Cc1ccc(/C=C/c2n[nH]cc2CN(C)CCN)cc1` [Compound 8], the results for the concentration for half-maximal inhibition (IC50) in test [1] (setting [3]) and in test [2] (setting [4]) were 20 nM and 360 nM, respectively.
On the same counts, the results for `CN(CCN)Cc1c[nH]nc1C1=CCOCC1` [Compound 10] are 390 nM and 1920 nM.
On the same counts, the results for `COc1cc(/C=C/c2n[nH]cc2CN(C)CCN)cc(OC)c1` [Compound 11] are 10 nM and 250 nM.
With `CN(CCN)Cc1c[nH]nc1C1CC1` [Compound 12], the figures for the IC50 in test [1] (setting [3]), in test [2] (setting [5]) and in test [2] (setting [4]) were 1580 nM, above 10000 nM and above 10000 nM, respectively.
With `CN(CCN)Cc1c[nH]nc1/C=C/c1ccc(F)cc1F` [Compound 13], the IC50 in test [1] (setting [3]) was 10 nM; in test [2] (setting [4]), 300 nM.
On the same counts, the results for `CN(CCN)Cc1c[nH]nc1/C=C/c1cc(C(F)(F)F)cc(C(F)(F)F)c1` [Compound 14] are 90 nM and 660 nM.
On the same counts, the results for `CN(CCN)Cc1c[nH]nc1/C=C/c1cc(F)cc(F)c1` [Compound 15] are 50 nM and 700 nM.
On to `CN(CCN)Cc1c[nH]nc1/C=C/c1cccc(C(F)(F)F)c1` [Compound 16], for which the IC50 in test [1] (setting [3]) was determined as 20 nM; in test [2] (setting [4]) it was 690 nM.
Taken in the same sequence, the figures for `COc1cccc(/C=C/c2n[nH]cc2CN(C)CCN)c1` [Compound 17] were 10 nM and 410 nM.
Consider `CN(CCN)Cc1c[nH]nc1/C=C/c1ccc(C(F)(F)F)cc1` [Compound 18], for which, in test [2] (setting [4]), the half-inhibitory concentration (IC50) is 40 nM.
Consider `COC/C=C/c1n[nH]cc1CN(C)CCN` [Compound 19], for which the results for the 50% inhibitory concentration (IC50) in test [1] (setting [3]) and in test [2] (setting [4]) were 190 nM and 2300 nM, respectively.
In the case of `CN(CCN)Cc1c[nH]nc1/C=C/c1cccc(F)c1` [Compound 20], the IC50 stood at 20 nM in test [1] (setting [3]) and 470 nM in test [2] (setting [4]).
Taken in the same sequence, the figures for `CC(C)c1n[nH]cc1CN(C)CCN` [Compound 21] were 1490 nM and 9560 nM.
Taken in the same sequence, the figures for `CN(CCN)Cc1c[nH]nc1C1CCCCC1` [Compound 22] were 10 nM and 300 nM.
On the same counts, the results for `CN(CCN)Cc1c[nH]nc1CCc1ccc(F)cc1` [Compound 23, N^1-((3-(4-fluorophenethyl)-1H-pyrazol-4-yl)methyl)-N^1-methylethane-1,2-diamine] are 10 nM and 280 nM.
As for `CN(CCN)Cc1c[nH]nc1/C=C/Cc1ccccc1` [Compound 24], the IC50 in test [1] (setting [3]) was found to be 20 nM; in test [2] (setting [4]) it was 300 nM.
For `CN(CCN)Cc1c[nH]nc1C1=CCCC1` [Compound 25], the figures for the half-inhibitory concentration (IC50) in test [1] (setting [3]) and in test [2] (setting [4]) were 250 nM and 2860 nM, respectively.
Turning to `CN(CCN)Cc1c[nH]nc1C1CCC1` [Compound 26], the IC50 in test [2] (setting [4]) was determined as 5630 nM.
As to `CN(CCN)Cc1c[nH]nc1C(C)(C)C` [Compound 27], the IC50 in test [2] (setting [5]) and in test [2] (setting [4]) was above 10000 nM each time.
Regarding `CC(C)Cc1n[nH]cc1CN(C)CCN` [Compound 28, N^1-((3-iso-butyl-1H-pyrazol-4-yl)methyl)-N^1-methylethane-1,2-diamine], the IC50 in test [1] (setting [3]) was determined as 180 nM; in test [2] (setting [4]) it was 1680 nM.
As to `CCCc1n[nH]cc1CN(C)CCN` [Compound 29], the concentration for half-maximal inhibition (IC50) in test [2] (setting [4]) turned out to be 3810 nM.
Take `Cc1n[nH]cc1CN(C)CCN` [Compound 30]: the IC50 in test [2] (setting [4]) is above 10000 nM.
For the molecule `CN(CCN)Cc1c[nH]nc1C1CCCC1` [Compound 31], the results for the half-maximal inhibitory concentration (IC50) in test [1] (setting [3]) and in test [2] (setting [4]) were 110 nM and 1150 nM, respectively.
Taken in the same sequence, the figures for `CNCCN(C)Cc1c[nH]nc1C1CCN(C(=O)Cc2ccccc2)CC1` [Compound 32] were 20 nM and 770 nM.
Taken in the same sequence, the figures for `CN(CCN)Cc1n[nH]cc1C1CCCCC1` [Compound 33] were 20 nM and 500 nM.
As to `CNCCN(C)Cc1c[nH]nc1C1CCN(C(=O)C(C)C)CC1` [Compound 34], the IC50 turned out to be 20 nM in test [1] (setting [3]) and 440 nM in test [2] (setting [4]).
As to `CC1CCC(c2c[nH]nc2CN(C)CCN)CC1` (stereo not shown) [Compound 35], the IC50 in test [2] (setting [4]) came out at 140 nM.
With `CN(CCN)Cc1n[nH]cc1C1CCC(C)(C)CC1` [Compound 36], the IC50 in test [2] (setting [4]) stood at 280 nM.
Regarding `CC1CCC(c2n[nH]cc2CN(C)CCN)CC1` (stereo not shown) [Compound 37, N^1-methyl-N^1-((3-(4-methylcyclohexyl)-1H-pyrazol-4-yl)methyl)ethane-1,2-diamine], the IC50 came out at 10 nM in test [1] (setting [3]) and 130 nM in test [2] (setting [4]).
With `CN(CCN)Cc1c[nH]nc1C1CCC(C)(C)CC1` [Compound 38, N^1-((3-(4,4-dimethylcyclohexyl)-1H-pyrazol-4-yl)methyl)-N^1-methylethane-1,2-diamine], in test [2] (setting [4]), the half-maximal inhibitory concentration (IC50) came to 260 nM.
For `CNCCN(C)Cc1c[nH]nc1C1CCN(CC(C)C)CC1` [Compound 39, N^1-((3-(1-isobutylpiperidin-4-yl)-1H-pyrazol-4-yl)methyl)-N^1,N^2-dimethylethane-1,2-diamine], in test [2] (setting [4]), the IC50 was found to be 360 nM.
As for `CNCCN(C)Cc1c[nH]nc1C1CCN(C(=O)CC(C)C)CC1` [Compound 40, 3-methyl-1-(4-(4-((methyl(2-(methylamino)ethyl)amino)methyl)-1H-pyrazol-3-yl)piperidin-1-yl)butan-1-one], the half-maximal inhibitory concentration (IC50) in test [1] (setting [3]) was determined as 20 nM; in test [2] (setting [4]), 7010 nM.
For the molecule `CNCCN(C)Cc1c[nH]nc1C1CCN(C)CC1` [Compound 41], the IC50 in test [1] (setting [3]) amounted to 10 nM; in test [2] (setting [4]) it was 350 nM.
As to `CNCCN(C)Cc1c[nH]nc1C1CCNCC1` [Compound 42], the IC50 in test [2] (setting [4]) is 30 nM.
Regarding `CN(CCN)Cc1n[nH]cc1C1CCC(N2CCOCC2)CC1` (stereo not shown) [Compound 44, N^1-methyl-N^1-((4-(4-morpholinocyclohexyl)-1H-pyrazol-3-yl)methyl)ethane-1,2-diamine], the IC50 in test [2] (setting [4]) came to 62.4 nM.
In the case of `CNCCN(C)Cc1c[nH]nc1C1CCC(COC(C)C)(COC(C)C)CC1` [Compound 61], the IC50 was below 100 nM in test [1] and 20.5 nM in test [1] (setting [3]).
With `CNCCN(C)Cc1c[nH]nc1[C@H]1CC[C@@]2(CC1)CC(C)(C)CO2` [Compound 133, Methyl[2-(methylamino)ethyl]([3-[(5s,8s)-3,3-dimethyl-1-oxaspiro[4.5]decan-8-yl]-1H-pyrazol-4-yl]methyl)amine], the values for the IC50 in test [2] (Biochemical IC50 PRMT8) and in test [2] (setting [6]) were below 100 nM and 9.1 nM, respectively.
Taken in the same sequence, the figures for `CNCCN(C)Cc1c[nH]nc1[C@H]1CC[C@]2(CC1)CC(C)(C)CO2` [Compound 134, methyl[2-(methylamino)ethyl]([3-[(5r,8r)-3,3-dimethyl-1-oxaspiro[4.5]decan-8-yl]-1H-pyrazol-4-yl]methyl)amine] were below 100 nM and 24.8 nM.
